The values below come from patent publication US12275731B2, “Azaindole inhibitors of wild-type and mutant forms of LRRK2” (DANA-FARBER CANCER INSTITUTE, INC., priority 2018, dated 2025).

Structures are written as SMILES.

Experiment in all cases: KinomeScan profiling
Holding throughout (format): binding

In test [1] the target is T1, ABL1(F317I)-phoshorylated (Homo sapiens, UniProt P00519, F317I).
T1 construct: purchased KinomeScan®
The following applies: read-out: % control. In outline: (§1)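 At 1 μM in DMSO, compounds are run through a broad 468-member kinase panel. The luminescent read-out is normalised so that vehicle gives 100% and a positive control gives 0%; any kinase falling below 35% is treated as a target.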

For test [2], the target named is T2, ABL1(Y253F)-phosphorylated (Homo sapiens, UniProt P00519, Y253F).
T2 construct: purchased KinomeScan®
The settings on record: read-out: % control. A digest of the protocol: as §1

For test [3], the target named is LRRK2 (Homo sapiens, UniProt Q5S007). The settings on record: LRRK2, 1 μM; read-out: % control. In outline: as §1
The target of test [4] is MAP4K4 (Homo sapiens, UniProt O95819). The settings on record: MAP4K4, 1 μM; read-out: % control. A digest of the protocol: as §1
Test [5] deals with T3, PIP5K2C (Homo sapiens, UniProt Q8TBX8).
T3 construct: purchased KinomeScan® (panel service)
T3 sequence (Q8TBX8 1-421): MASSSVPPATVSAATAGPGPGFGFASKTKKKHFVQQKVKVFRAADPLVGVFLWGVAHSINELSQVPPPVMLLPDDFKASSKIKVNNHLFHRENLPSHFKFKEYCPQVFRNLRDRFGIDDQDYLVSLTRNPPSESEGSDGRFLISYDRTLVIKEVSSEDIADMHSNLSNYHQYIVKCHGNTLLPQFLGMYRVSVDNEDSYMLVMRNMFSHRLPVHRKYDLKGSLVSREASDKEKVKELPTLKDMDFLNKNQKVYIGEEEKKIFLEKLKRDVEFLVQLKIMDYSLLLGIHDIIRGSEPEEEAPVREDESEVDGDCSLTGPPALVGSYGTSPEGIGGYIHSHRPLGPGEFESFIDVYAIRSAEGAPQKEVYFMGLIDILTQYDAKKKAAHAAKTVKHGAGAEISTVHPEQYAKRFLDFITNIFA
The settings on record: read-out: % control. In outline:
as §1

The target in test [6] is T4, PRKD2 (Homo sapiens, UniProt Q9BZL6).
T4 sequence (Q9BZL6 1-878): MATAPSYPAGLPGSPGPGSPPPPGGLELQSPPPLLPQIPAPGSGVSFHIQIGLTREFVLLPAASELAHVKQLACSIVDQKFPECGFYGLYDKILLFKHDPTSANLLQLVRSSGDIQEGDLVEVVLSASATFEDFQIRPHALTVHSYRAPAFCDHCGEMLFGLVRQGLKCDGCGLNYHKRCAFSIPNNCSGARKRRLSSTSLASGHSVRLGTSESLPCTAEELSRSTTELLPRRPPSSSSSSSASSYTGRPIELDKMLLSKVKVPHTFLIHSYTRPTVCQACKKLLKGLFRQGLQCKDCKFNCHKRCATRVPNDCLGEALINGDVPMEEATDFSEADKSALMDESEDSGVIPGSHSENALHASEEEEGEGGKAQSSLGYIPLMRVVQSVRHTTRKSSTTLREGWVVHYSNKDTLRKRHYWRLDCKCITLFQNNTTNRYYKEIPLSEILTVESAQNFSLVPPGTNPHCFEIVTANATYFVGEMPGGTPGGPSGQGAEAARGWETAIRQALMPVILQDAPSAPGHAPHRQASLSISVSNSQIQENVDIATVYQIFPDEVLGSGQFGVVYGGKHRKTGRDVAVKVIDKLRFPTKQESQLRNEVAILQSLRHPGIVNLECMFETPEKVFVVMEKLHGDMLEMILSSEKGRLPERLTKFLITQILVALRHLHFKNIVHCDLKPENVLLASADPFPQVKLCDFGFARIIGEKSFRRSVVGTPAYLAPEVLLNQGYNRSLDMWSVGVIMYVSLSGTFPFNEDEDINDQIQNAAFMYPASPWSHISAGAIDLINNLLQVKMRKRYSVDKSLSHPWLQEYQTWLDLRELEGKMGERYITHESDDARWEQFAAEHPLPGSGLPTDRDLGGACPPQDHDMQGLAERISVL
The settings on record: PRKD2, 1 μM; read-out: % control. A digest of the protocol: as §1

Test [7] has as its target T5, RPS6KA4(Kin.Dom.1-N-terminal) (Homo sapiens, UniProt O75676).
T5 construct: RPS6KA4(Kin.Dom.1-N-terminal)
T5 sequence (O75676 33-301 limits assumed): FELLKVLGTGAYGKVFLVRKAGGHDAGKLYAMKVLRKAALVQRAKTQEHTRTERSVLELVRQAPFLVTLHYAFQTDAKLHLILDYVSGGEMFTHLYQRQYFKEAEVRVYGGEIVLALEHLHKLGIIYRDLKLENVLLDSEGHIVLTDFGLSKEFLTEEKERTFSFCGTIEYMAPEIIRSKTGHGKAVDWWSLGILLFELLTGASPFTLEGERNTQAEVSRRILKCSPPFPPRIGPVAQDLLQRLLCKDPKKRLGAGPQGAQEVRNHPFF
The following applies: read-out: % control. In outline: as §1

Test [8] deals with VPS34 (Homo sapiens, UniProt Q8NEB9). The settings on record: VPS34, 1 μM; read-out: % control. A digest of the protocol: as §1
Sequence of VPS34 (Q8NEB9 whole entry): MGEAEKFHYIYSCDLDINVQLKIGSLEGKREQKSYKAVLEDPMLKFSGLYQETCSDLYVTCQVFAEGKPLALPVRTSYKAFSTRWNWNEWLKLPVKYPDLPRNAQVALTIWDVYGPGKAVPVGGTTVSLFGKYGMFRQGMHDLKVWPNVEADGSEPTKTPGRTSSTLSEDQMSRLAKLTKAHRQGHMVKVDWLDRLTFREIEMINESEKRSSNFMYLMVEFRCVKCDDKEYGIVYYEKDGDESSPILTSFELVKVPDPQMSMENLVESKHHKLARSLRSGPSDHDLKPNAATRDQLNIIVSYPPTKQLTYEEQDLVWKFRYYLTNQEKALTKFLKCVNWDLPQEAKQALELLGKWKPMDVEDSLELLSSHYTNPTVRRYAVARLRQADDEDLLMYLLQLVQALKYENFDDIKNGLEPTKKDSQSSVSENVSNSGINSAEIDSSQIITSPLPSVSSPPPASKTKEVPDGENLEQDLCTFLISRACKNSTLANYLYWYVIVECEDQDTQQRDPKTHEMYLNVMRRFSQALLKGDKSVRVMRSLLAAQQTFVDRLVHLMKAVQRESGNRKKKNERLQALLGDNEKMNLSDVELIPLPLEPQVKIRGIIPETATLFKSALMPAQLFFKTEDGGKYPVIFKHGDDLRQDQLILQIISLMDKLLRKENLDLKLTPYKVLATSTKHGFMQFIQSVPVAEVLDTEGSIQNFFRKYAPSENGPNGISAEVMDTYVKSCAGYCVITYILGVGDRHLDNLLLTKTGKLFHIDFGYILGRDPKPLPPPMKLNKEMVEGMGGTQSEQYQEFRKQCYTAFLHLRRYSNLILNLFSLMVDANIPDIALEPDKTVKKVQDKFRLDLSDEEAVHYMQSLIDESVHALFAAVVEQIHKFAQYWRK

Sequence of MAP4K4 (O95819 whole entry): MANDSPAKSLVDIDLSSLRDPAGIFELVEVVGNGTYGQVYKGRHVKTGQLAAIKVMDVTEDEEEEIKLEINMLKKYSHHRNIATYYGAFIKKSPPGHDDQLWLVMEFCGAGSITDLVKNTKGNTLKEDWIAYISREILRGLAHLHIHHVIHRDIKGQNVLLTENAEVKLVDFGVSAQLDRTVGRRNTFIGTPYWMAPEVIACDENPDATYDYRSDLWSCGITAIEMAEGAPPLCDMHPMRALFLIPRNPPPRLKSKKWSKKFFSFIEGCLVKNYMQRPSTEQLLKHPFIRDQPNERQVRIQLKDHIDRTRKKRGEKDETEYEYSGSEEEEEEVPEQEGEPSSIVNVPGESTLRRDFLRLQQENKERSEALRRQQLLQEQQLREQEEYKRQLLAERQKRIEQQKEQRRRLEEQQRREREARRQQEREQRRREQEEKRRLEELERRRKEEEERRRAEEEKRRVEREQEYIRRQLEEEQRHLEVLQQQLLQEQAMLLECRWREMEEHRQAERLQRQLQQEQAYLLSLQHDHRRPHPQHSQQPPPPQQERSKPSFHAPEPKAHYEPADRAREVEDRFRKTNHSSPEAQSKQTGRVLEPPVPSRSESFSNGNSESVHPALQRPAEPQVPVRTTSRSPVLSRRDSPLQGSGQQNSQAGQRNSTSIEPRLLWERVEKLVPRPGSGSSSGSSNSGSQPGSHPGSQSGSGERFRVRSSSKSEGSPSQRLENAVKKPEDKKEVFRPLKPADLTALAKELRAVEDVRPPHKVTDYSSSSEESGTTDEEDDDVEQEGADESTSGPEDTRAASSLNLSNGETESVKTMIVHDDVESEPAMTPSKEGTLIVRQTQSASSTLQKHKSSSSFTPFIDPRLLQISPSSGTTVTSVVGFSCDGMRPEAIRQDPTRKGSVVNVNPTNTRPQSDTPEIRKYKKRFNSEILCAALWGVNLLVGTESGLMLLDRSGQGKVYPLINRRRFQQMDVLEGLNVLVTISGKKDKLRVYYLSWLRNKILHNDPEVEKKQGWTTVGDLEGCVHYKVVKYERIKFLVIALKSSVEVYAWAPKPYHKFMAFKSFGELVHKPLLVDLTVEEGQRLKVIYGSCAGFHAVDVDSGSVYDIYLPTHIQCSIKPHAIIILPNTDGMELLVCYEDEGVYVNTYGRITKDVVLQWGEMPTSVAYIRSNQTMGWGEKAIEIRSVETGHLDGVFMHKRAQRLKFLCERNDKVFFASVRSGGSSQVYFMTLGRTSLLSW
Sequence of LRRK2 (Q5S007 whole entry): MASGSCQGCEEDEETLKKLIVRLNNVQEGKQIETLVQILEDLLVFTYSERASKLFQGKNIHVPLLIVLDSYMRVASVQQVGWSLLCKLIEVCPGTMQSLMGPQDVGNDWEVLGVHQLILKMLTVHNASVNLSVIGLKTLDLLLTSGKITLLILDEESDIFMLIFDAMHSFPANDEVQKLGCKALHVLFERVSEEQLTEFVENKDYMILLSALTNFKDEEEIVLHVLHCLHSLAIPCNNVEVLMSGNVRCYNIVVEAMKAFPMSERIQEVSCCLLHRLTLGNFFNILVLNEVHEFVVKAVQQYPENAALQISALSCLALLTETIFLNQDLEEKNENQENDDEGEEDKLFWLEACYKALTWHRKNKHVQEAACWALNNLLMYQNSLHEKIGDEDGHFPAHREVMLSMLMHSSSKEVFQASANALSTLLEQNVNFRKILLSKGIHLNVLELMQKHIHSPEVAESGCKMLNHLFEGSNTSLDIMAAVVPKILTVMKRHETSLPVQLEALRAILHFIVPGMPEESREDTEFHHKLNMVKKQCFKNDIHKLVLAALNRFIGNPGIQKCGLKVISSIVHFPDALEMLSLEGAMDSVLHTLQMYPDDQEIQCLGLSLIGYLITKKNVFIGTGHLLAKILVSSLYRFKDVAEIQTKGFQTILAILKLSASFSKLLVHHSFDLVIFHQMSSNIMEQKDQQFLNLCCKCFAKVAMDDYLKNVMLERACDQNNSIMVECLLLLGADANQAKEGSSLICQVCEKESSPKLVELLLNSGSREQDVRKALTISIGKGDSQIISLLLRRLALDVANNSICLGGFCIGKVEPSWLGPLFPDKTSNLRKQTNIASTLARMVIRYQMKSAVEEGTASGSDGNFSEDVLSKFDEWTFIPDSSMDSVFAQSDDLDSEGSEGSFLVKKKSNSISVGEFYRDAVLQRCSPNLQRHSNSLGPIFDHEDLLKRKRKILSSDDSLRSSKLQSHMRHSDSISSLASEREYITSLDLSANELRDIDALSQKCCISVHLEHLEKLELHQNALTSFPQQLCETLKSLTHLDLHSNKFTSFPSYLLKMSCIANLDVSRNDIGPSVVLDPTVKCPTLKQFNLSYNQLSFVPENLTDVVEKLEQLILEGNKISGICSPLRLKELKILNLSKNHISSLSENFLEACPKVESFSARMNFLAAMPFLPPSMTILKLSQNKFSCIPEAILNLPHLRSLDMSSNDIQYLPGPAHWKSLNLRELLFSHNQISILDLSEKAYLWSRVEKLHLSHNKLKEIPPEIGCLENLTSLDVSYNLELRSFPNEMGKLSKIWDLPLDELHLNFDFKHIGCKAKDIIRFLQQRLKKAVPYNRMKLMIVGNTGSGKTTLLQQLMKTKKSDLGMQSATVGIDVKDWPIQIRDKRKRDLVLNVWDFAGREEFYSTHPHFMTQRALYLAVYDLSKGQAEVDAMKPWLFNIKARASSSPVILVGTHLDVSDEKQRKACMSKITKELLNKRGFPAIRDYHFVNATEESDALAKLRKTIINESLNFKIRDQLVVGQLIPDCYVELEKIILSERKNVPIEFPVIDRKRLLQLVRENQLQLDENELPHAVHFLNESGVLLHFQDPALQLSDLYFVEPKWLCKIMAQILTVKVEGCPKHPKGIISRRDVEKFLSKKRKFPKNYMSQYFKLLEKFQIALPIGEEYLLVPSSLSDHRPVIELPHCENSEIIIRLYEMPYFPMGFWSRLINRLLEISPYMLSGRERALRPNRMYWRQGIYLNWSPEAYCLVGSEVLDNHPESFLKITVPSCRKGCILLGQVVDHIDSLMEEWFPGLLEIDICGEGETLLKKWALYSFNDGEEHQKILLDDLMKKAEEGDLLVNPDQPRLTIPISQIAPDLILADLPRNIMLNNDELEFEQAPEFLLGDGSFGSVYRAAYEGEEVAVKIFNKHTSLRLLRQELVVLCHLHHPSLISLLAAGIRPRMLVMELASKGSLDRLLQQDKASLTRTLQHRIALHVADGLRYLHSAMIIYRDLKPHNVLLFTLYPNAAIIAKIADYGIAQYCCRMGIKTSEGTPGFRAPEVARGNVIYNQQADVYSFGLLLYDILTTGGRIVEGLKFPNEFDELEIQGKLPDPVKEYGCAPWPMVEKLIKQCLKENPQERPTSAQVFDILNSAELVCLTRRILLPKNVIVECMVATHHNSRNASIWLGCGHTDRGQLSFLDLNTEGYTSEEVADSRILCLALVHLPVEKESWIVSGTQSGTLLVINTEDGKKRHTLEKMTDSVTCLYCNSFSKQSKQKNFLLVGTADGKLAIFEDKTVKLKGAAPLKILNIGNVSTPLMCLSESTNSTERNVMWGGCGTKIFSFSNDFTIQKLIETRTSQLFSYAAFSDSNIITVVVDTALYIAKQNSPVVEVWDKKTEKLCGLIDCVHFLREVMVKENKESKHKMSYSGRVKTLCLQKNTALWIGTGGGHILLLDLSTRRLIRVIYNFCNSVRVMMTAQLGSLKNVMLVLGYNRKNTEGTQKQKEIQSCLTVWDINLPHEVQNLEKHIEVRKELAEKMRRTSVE

For `CNc1c(-c2cnn([C@H]3CCN(C(C)=O)C[C@@H]3F)c2)cnc2[nH]cc(Cl)c12` [Compound 77, 1-((3S,4S)-4-(4-(3-chloro-4-(methylamino)-1H-pyrrolo[2,3-b]pyridin-5-yl)-1H-pyrazol-1-yl)-3-fluoropiperidin-1-yl)ethan-1-one], the remaining binding at 1 µM in test [1] is 81%; in test [2], 79%; in test [3] it was 15%; in test [4] it was 58%; in test [5], 93%; in test [6] it was 90%. In addition, the remaining binding at 1 µM worked out at 97% in test [7] and 35% in test [8].
With `CNc1c(-c2ccc(C(=O)N3CCC(N4CCOCC4)CC3)cc2)cnc2[nH]cc(Cl)c12` [Compound 96, (4-(3-chloro-4-(methylamino)-1H-pyrrolo[2,3-b]pyridin-5-yl)phenyl)(4-morpholinopiperidin-1-yl)methanone], the remaining binding at 1 µM turned out to be 100% in test [1]; 98% in test [2]; 2.6% in test [3]; 19% in test [4]; 63% in test [5]; 13% in test [6]. Besides, the remaining binding at 1 µM in test [7] is 100%; in test [8], 51%.
Consider `O=C(c1ccc(-c2cnc3[nH]cc(Cl)c3c2NC2CCCC2)cc1)N1CCC(N2CCOCC2)CC1` [Compound 101, (4-(3-chloro-4-(cyclopentylamino)-1H-pyrrolo[2,3-b]pyridin-5-yl)phenyl)(4-morpholinopiperidin-1-yl)methanone], for which the remaining binding at 1 µM was determined as 10% in test [1]; 100% in test [2]; 33% in test [3]; 78% in test [4]; 77% in test [5]; 59% in test [6]. Further, the remaining binding at 1 µM in test [7] turned out to be 84%; in test [8], 100%.
